In brackets after ≈: the same amount, converted by molar mass.
Experiments:
physchem [1] = conditions: octan-1-ol/water
physchem [2] = conditions: pH 7.4 buffer

| Compound | logD (physchem [1]; pH 7.4, LogD7.4) | solubility thermodynamic (physchem [2]) | logD (physchem [1]; pH 7.4) |
| --- | --- | --- | --- |
| COc1ccc(Nc2cc(Nc3ccc(OCC(O)CN(C)C)cc3)ncn2)cc1 (centres undefined) | 1.5 | 12 µM (≈ 4.91 µg/mL) |  |
| CCOC(=O)N1CCN(C(=O)[C@H](Cc2cccc(C(=N)N)c2)NS(=O)(=O)c2c(C(C)C)cc(C(C)C)cc2C(C)C)CC1 | 1.67 | 692 µM (≈ 425 µg/mL) |  |
| O=C(O)CC(=O)N[C@@H]1c2ccccc2C[C@H]1NC(=O)c1cc2sc(Cl)c(Cl)c2[nH]1 | 1.18 | 1170 µM (≈ 531 µg/mL) |  |
| CCc1ccc(NC(=O)c2ccc3cc(C(=N)N)ccc3c2)cc1 | 1.1 | 8.5 µM (≈ 2.7 µg/mL) |  |
| Cc1cc(NC(=O)c2ccccc2)n[nH]1 | 1.75 | 813 µM (≈ 164 µg/mL) |  |
| Cc1nc(CS(=O)(=O)c2ccc(Cl)cc2)cc(N2CCOCC2)n1 | 1.8 | 224 µM (≈ 82.4 µg/mL) |  |
| Cc1onc(CO)c1C(=O)Nc1nccs1 | 1.53 | 144 µM (≈ 34.6 µg/mL) |  |
| O=S(=O)(c1cccc(-c2cn3cccnc3n2)c1)N1CCOCC1 | 1.3 | 39.8 µM (≈ 13.7 µg/mL) |  |
| CCOC(=O)Cc1csc(NS(=O)(=O)c2ccc(Cl)cc2)n1 | 1.32 | 417 µM (≈ 150 µg/mL) |  |
| Oc1cc(OCc2ccccc2)ccn1 | 1.69 | 1230 µM (≈ 248 µg/mL) |  |
| O=C1CN(C(=O)c2ccco2)c2ccccc2N1 | 1.21 | 269 µM (≈ 65.2 µg/mL) |  |
| CNC(=O)c1ccc2c(=O)cc(-c3cccnc3)[nH]c2c1 | 1.01 | 309 µM (≈ 86.3 µg/mL) |  |
| CC(=O)c1ccc2[nH]c(-c3cccnc3)cc(=O)c2c1 | 1.41 | 126 µM (≈ 33.3 µg/mL) |  |
| Cc1nc2nc(-c3cccnc3)nn2c(O)c1Cc1ccccc1 | 1.52 | 29.5 µM (≈ 9.36 µg/mL) |  |
| COC[C@H](C)Oc1cc(Oc2cc(F)cc(F)c2)cc(C(=O)Nc2ccc(C(=O)O)cn2)c1 | 1.36 | 832 µM (≈ 381 µg/mL) |  |
| Cc1cc(CCC2CCN(S(=O)(=O)CC3(N(O)C=O)CCOCC3)CC2)c(C)cn1 | 1.43 | 1100 µM (≈ 482 µg/mL) |  |
| O=CN(O)C1(CS(=O)(=O)N2CCN(c3ccc(F)cc3)CC2)CCC1 | 1.34 | 490 µM (≈ 182 µg/mL) |  |
| O=CN(O)C1(CS(=O)(=O)N2CCN(c3ccc(F)cc3)CC2)CCOCC1 | 0.85 | 1380 µM (≈ 554 µg/mL) |  |
| Cc1cn(C[C@H]2CN(c3ccc(C4=CCS(=O)(=O)CC4)c(F)c3)C(=O)O2)nn1 | 1.25 | 372 µM (≈ 151 µg/mL) |  |
| COc1cc(OC2CCNCC2)ccc1Nc1ncc(Cl)c(-c2cnc3ccccn23)n1 | 1.8 | 30.9 µM (≈ 13.9 µg/mL) |  |
| CC1CN(C(=O)c2ccccc2)c2ccccc2NC1=O (centres undefined) | 1.73 | 1200 µM (≈ 337 µg/mL) |  |
| Cc1ccc(S(=O)(=O)Nc2c(C(=O)NC3CCCCC3)cnn2-c2ccccc2)cc1 | 0.8 | 490 µM (≈ 215 µg/mL) |  |
| CNc1cccc(CCCc2ccc(C[C@H](NC(=O)c3c(Cl)cccc3Cl)C(=O)O)s2)n1 | 0.78 | 331 µM (≈ 163 µg/mL) |  |
| Cc1ccc(NC(=O)c2cccnc2)cc1-n1cnc2ccc(N3CCN(C)CC3)cc2c1=O | 1.5 | 251 µM (≈ 114 µg/mL) |  |
| O=C(Nc1nnc(C(=O)Nc2ccc(N3CCOCC3)cc2)o1)c1ccccc1 | 1.02 | 105 µM (≈ 41.2 µg/mL) |  |
| CNC(=O)Nc1nc2ccc(-c3cncc(S(=O)(=O)NC(C)(C)C)c3)cn2n1 | 1.58 | 87.1 µM (≈ 35.1 µg/mL) |  |

| Compound | logD (physchem [1]; pH 7.4, LogD7.4) | solubility thermodynamic (physchem [2]) | logD (physchem [1]; pH 7.4) |
| --- | --- | --- | --- |
| COc1cc(OC)nc(-n2ncc(Cl)c(Cl)c2=O)n1 | 1.4 | 70.8 µM (≈ 21.5 µg/mL) |  |
| CCCSc1nc(Oc2ccc(CC(=O)O)cc2)ccc1C(=O)NC1CCCCC1 | 1.79 | 550 µM (≈ 235 µg/mL) |  |
| CCCSc1nc(N2CCC(C(=O)O)CC2)ccc1C(=O)NC1CCCCC1 | 1.6 | 309 µM (≈ 125 µg/mL) |  |
| CS(=O)(=O)c1ccc2[nH]c3c(c2c1)CN(C(=O)[C@@H]1CCCC[C@H]1C(=O)NC1(C#N)CC1)CC3 | 1.5 | 190 µM (≈ 89.3 µg/mL) |  |
| Cc1nc(C)c(-c2ccc(C34CCC(CC(=O)O)(CC3)CC4)cc2)nc1C(N)=O | 1.6 | 112 µM (≈ 44.1 µg/mL) |  |
| Cc1nc(C)c(-c2ccc([C@H]3CC[C@H](CCC(=O)O)CC3)cc2)nc1C(N)=O | 1.6 | 200 µM (≈ 76.1 µg/mL) |  |
| Cc1nc(C)c(-c2ccc([C@H]3CC[C@H](CC(=O)O)CC3)c(Cl)c2)nc1C(N)=O | 1.8 | 209 µM (≈ 84 µg/mL) |  |
| Cc1nc(C)c(-c2ccc([C@H]3CC[C@@H](CC(=O)O)CC3)c(F)c2)nc1C(N)=O | 1.2 | 759 µM (≈ 292 µg/mL) |  |
| Cc1nc(C)c(-c2ccc([C@H]3CC[C@@H](CC(=O)O)CC3)c(Cl)c2)nc1C(N)=O | 1.7 | 200 µM (≈ 80.2 µg/mL) |  |
| Cc1ncc(-c2ccc([C@H]3CC[C@H](CC(=O)O)CC3)cc2)nc1C(N)=O | 1 | 372 µM (≈ 131 µg/mL) |  |
| CN1CC(n2nccc2-c2cc(Cl)ccc2Oc2cc(F)c(S(=O)(=O)Nc3ncns3)cc2F)C1 | 1 | 47.9 µM (≈ 25.8 µg/mL) |  |
| CNC(=O)c1cc(-c2nc(N3CCOCC3)cc(C3(S(C)(=O)=O)CC3)n2)c2cc[nH]c2c1 | 1.7 | 46.8 µM (≈ 21.3 µg/mL) |  |
| CCCNCc1cnc(-c2ccc(C(=O)Nc3ccccc3N)cc2)s1 | 1.75 | 676 µM (≈ 248 µg/mL) |  |
| Cn1sc(NCc2ccccc2)nc1=O | 1.2 | 1510 µM (≈ 335 µg/mL) |  |
| O=c1[nH][nH]c(=O)c2c1[nH]c1cc(Cl)cc(Cl)c12 | 1.02 | 57.5 µM (≈ 15.5 µg/mL) |  |
| CCN(CC)C(=O)Cc1csc(NS(=O)(=O)c2cccc(Cl)c2C)n1 | 1.67 | 40.7 µM (≈ 16.4 µg/mL) |  |
| Cc1c(CCC(=O)O)c[nH]c1/C=C1\C(=O)Nc2ccccc21 | 1.05 | 209 µM (≈ 61.9 µg/mL) |  |
| CSc1ccc(OCc2ccccc2)c(C(=O)Nc2ccc(C(=O)O)cn2)c1 | 1.6 | 200 µM (≈ 78.7 µg/mL) |  |
| CC(C)Oc1cc(OCCc2ccsc2)cc(C(=O)Nc2ccc(C(=O)O)cn2)c1 | 1.74 | 33.9 µM (≈ 14.5 µg/mL) |  |
| CC(C)COc1cc(OC(C)C)cc(C(=O)Nc2ccc(C(=O)O)cn2)c1 | 1.6 | 190 µM (≈ 70.9 µg/mL) |  |
| CCc1cc(OCc2ccc(-c3ccccc3-c3nnn[nH]3)cc2)c2c(n1)CCCC2 | 1.7 | 23.4 µM (≈ 9.63 µg/mL) |  |
| NC(=O)Nc1sc(-c2ccc(CNC3CCCC3)cc2)cc1C(N)=O | 1.22 | 479 µM (≈ 172 µg/mL) |  |
| CCn1c2nc(=O)n(C)c(=O)c-2cc2ccccc21 | 1.1 | 324 µM (≈ 82.6 µg/mL) |  |
| CC1(C)Oc2ncnc(N)c2N=C1c1ccc([C@H]2CC[C@H](CC(=O)O)CC2)cc1 | 1.32 | 118 µM (≈ 46.4 µg/mL) |  |
| Nc1nccc(-c2c[nH]c3ccccc23)n1 | 1.68 | 575 µM (≈ 121 µg/mL) |  |
| Cc1ncc(-c2ccnc(Nc3ccc(S(N)(=O)=O)cc3)n2)n1C | 1.6 | 36.3 µM (≈ 12.5 µg/mL) |  |

| Compound | logD (physchem [1]; pH 7.4, LogD7.4) | solubility thermodynamic (physchem [2]) | logD (physchem [1]; pH 7.4) |
| --- | --- | --- | --- |
| O=C(c1cc(Cc2n[nH]c(=O)c3ccccc23)ccc1F)N1CCN(C(=O)C2CCOC2)CC1 (centres undefined) | 0.8 | 380 µM (≈ 177 µg/mL) |  |
| Nc1nc(N)c2nc(-c3ccccc3)c(N)nc2n1 | 1.16 | 97.7 µM (≈ 24.7 µg/mL) |  |
| CC1(C)N=C(N)N=C(N)N1c1ccc(Oc2ccc(Cl)cc2)c(Cl)c1 | 0.79 | 372 µM (≈ 141 µg/mL) |  |
| CS(=O)(=O)c1ccc(C(=O)Nc2ccc(F)cc2)c[n+]1[O-] | 0.84 | 219 µM (≈ 67.9 µg/mL) |  |
| COc1cc(C(=O)NS(=O)(=O)c2ccccc2)ccc1Cn1ncc2ccc(NC(=O)CC3CCCC3)cc21 | 1.6 | 251 µM (≈ 137 µg/mL) |  |
| Cc1c[nH]c(/C=C2\C(=O)Nc3ccccc32)c1CCC(=O)O | 1.2 | 447 µM (≈ 132 µg/mL) |  |
| CN(C)CC(O)COc1ccc(Nc2nccc(Nc3ccccc3C#N)n2)cc1 (centres undefined) | 1.2 | 1100 µM (≈ 444 µg/mL) |  |
| Nc1cccc(NC(=O)c2ccc(CNC(=O)OCc3cccnc3)cc2)c1 | 1.6 | 21.9 µM (≈ 8.24 µg/mL) |  |
| Nc1ccc(OCc2ccccc2)cc1 [4-BENZYLOXYANILINE] | 2.2 | 468 µM (≈ 93.2 µg/mL) |  |
| Nc1ncnc2c1ncn2Cc1ccccc1 [9-BENZYL-9H-ADENINE] | 1.53 | 246 µM (≈ 55.3 µg/mL) |  |
| CN(C)C/C=C/C(=O)Nc1cc2c(Nc3ccc(F)c(Cl)c3)ncnc2cc1O[C@H]1CCOC1 [AFATINIB] | 3.7 | 93.3 µM (≈ 45.3 µg/mL) |  |
| Nc1ncnc(Nc2ccccc2)n1 [AMANOZINE] | 1.4 | 246 µM (≈ 46 µg/mL) |  |
| O=C1CN2Cc3c(ccc(Cl)c3Cl)N=C2N1 [ANAGRELIDE] | 1.86 | 5.4 µM (≈ 1.38 µg/mL) |  |
| CNC(=O)c1ccccc1Sc1ccc2c(/C=C/c3ccccn3)n[nH]c2c1 [AXITINIB] | 3.8 | 0.5 µM (≈ 0.193 µg/mL) |  |
| Cc1ccc(C(=O)Oc2ccc(C(O)CNC(C)(C)C)cc2OC(=O)c2ccc(C)cc2)cc1 (centres undefined) [BITOLTEROL] | 3.57 | 81.3 µM (≈ 37.5 µg/mL) |  |
| Cc1ccc2nc(NCCN)c3ncc(C)n3c2c1 [BMS-345541] | 0.88 | 246 µM (≈ 62.7 µg/mL) |  |
| Cc1cc2c(F)c(Oc3ncnn4cc(OC[C@@H](C)OC(=O)[C@H](C)N)c(C)c34)ccc2[nH]1 [BRIVANIB ALANINATE] | 3.19 | 37.2 µM (≈ 16.4 µg/mL) |  |
| NC1=NN(c2cccc(C(F)(F)F)c2)CC1 [BW-755C] | 2.55 | 1450 µM (≈ 331 µg/mL) |  |
| CC1(COc2ccc3c(c2)ncn3-c2ccc3cccc(N4CCC(N)CC4)c3n2)COC1 [CRENOLANIB] | 1.99 | 5.1 µM (≈ 2.26 µg/mL) |  |
| c1ccc(Nc2ccccc2)cc1 [DIPHENYLAMINE] | 3.2 | 178 µM (≈ 30.1 µg/mL) |  |
| Cc1oc(-c2ccccc2)nc1CCOc1ccc(C[C@H](Nc2ccccc2C(=O)c2ccccc2)C(=O)O)cc1 [FARGLITAZAR] | 3.5 | 35.5 µM (≈ 19.4 µg/mL) |  |
| CC1CCc2cc(F)cc3c(=O)c(C(=O)O)cn1c23 (centres undefined) [FLUMEQUINE] |  | 776 µM (≈ 203 µg/mL) | 0.74 |
| CC(C)C(=O)Nc1ccc([N+](=O)[O-])c(C(F)(F)F)c1 [FLUTAMIDE] |  | 89.1 µM (≈ 24.6 µg/mL) | 3.46 |
| Cc1cccc(-c2nn3c(c2-c2ccnc4ccc(C(N)=O)cc24)CCC3)n1 [GALUNISERTIB] | 1.71 | 182 µM (≈ 67.2 µg/mL) |  |
| COc1ccc2c(c1)[nH]c1c(C)nccc12 [HARMINE] |  | 55 µM (≈ 11.7 µg/mL) | 2.9 |

From ChEMBL document CHEMBL3301361, “Experimental in vitro DMPK and physicochemical data on a set of publicly disclosed compounds”
